Results reported in ChEMBL document CHEMBL3046473, “Effect on Insecticidal Activity of Substituents at the 1,4-Benzodioxanyl Moiety of Haedoxan” (1992).

Assays:
[1] = tested on: Musca domestica; assay: Insecticidal activity against 3-day old Musca domestica (house fly) administered topically measured after 24 hr; assay type: functional
[2] = tested on: Musca domestica; assay: Insecticidal activity against 3-day old Musca domestica (house fly) administered topically measured after 24 hr relative to (+)-haedoxan A; assay type: functional

Structure (SMILES) | LD50 [1] [µg] | Ratio [2]
COc1cc2c(cc1[C@H]1OC[C@]3(O)[C@@H](Oc4c(OC)cccc4OC)OC[C@H]13)OCCO2 | >10 | 
COc1cc2c(cc1[C@H]1OC[C@]3(O)[C@@H](Oc4c(OC)cccc4OC)OC[C@H]13)OC(CCl)CO2 (mixture of isomers) | 5 | 5e-05
COc1cc2c(cc1[C@H]1OC[C@]3(O)[C@@H](Oc4c(OC)cccc4OC)OC[C@H]13)OC(CO)CO2 (mixture of isomers) | >10 | 
COc1cc2c(cc1[C@H]1OC[C@]3(O)[C@@H](Oc4c(OC)cccc4OC)OC[C@H]13)OC(COC(C)(C)C)CO2 (mixture of isomers) | 1 | 0.0003
COc1cc2c(cc1[C@H]1OC[C@]3(O)[C@@H](Oc4c(OC)cccc4OC)OC[C@H]13)OC(COCc1ccccc1)CO2 (mixture of isomers) | >10 | 
COCC1COc2cc(OC)c([C@H]3OC[C@]4(O)[C@@H](Oc5c(OC)cccc5OC)OC[C@H]34)cc2O1 (mixture of isomers) | 1 | 0.0003
COc1cc2c(cc1[C@H]1OC[C@]3(O)[C@@H](Oc4c(OC)cccc4OC)OC[C@H]13)OCC(c1ccc3c(c1)OCO3)O2 (mixture of isomers) | 1 | 0.0003
COC[C@H]1Oc2cc([C@H]3OC[C@]4(O)[C@@H](Oc5c(OC)cc6c(c5OC)OCO6)OC[C@H]34)c(OC)cc2O[C@@H]1c1ccc2c(c1)OCO2 [(+)-HAEDOXAN A] | 0.00025 | 
